Source: PubChem BioAssay AID248 (DTP/NCI, 2004)
Several values for one entry are separate records, joined by “and”; a condition that tells them apart may be missing. Equal values may be shown once. Toxic doses and inconclusive results are not listed. Cut-off read from the data, not from the text of the source: active = T/C of 150% or more; inactive = T/C below 125%.

Tested on: L1210 leukemia ip in BDF1 mice, survival T/C
Test: NCI In Vivo Anticancer Drug Screen. Data for tumor model L1210 Leukemia (intraperitoneal) in B6D2F1 (BDF1) mice
Conditions: endpoint: mean survival time, higher = longer survival
Method in brief: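 Each compound was tested against a transplantable tumor grown in mice. The endpoint was survival, with treated animals benchmarked against vehicle controls as a simple ratio.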

[1] = dose: 100.0 mg/kg/injection, schedule: Q01DX001 (ip), vehicle: Klucel (hydroxypropylcellulose) (HPC)
[2] = dose: 200.0 mg/kg/injection, schedule: Q01DX001 (ip), vehicle: Klucel (hydroxypropylcellulose) (HPC)
[3] = dose: 400.0 mg/kg/injection, schedule: Q01DX001 (ip), vehicle: Klucel (hydroxypropylcellulose) (HPC)
[4] = dose: 100.0 mg/kg/injection, schedule: Q04DX003 (ip), vehicle: saline with Tween-80
[5] = dose: 200.0 mg/kg/injection, schedule: Q04DX003 (ip), vehicle: saline with Tween-80
[6] = dose: 400.0 mg/kg/injection, schedule: Q04DX003 (ip), vehicle: saline with Tween-80
[7] = dose: 100.0 mg/kg/injection, schedule: Q01DX001 (ip), vehicle: carboxymethylcellulose (CMC)
[8] = dose: 200.0 mg/kg/injection, schedule: Q01DX001 (ip), vehicle: carboxymethylcellulose (CMC)
[9] = dose: 400.0 mg/kg/injection, schedule: Q01DX001 (ip), vehicle: carboxymethylcellulose (CMC)
[10] = dose: 200.0 mg/kg/injection, schedule: Q04DX003 (ip), vehicle: saline
[11] = dose: 150.0 mg/kg/injection, schedule: Q01DX009 (ip), vehicle: saline

Measured: T/C

COc1c([N+](=O)[O-])cc2c(c1C)OCOC2
inactive: dose: 12.5 mg/kg/injection, schedule: Q01DX009 (ip), vehicle: Klucel (hydroxypropylcellulose) (HPC) 95 % of control | dose: 25.0 mg/kg/injection, schedule: Q01DX009 (ip), vehicle: Klucel (hydroxypropylcellulose) (HPC) 95 % of control | dose: 50.0 mg/kg/injection, schedule: Q01DX009 (ip), vehicle: Klucel (hydroxypropylcellulose) (HPC) 95 % of control | [1] 92 % of control | [2] 93 % of control | [3] 102 % of control

CSCCC(NC(=O)NS(=O)(=O)c1ccc(C)cc1)C(=O)O (configuration not stated)
inactive: [4] 96 % of control | [5] 97 % of control | [6] 100 % of control

COC(=O)C1(CCOC(C)=O)CCCCC12OCCO2 (configuration not stated)
inactive: [7] 94 % of control | [8] 100 % of control | [9] 91 % of control

CCOC(=O)c1ccc(N=NN(C)CC(C)C)cc1
inactive: [1] 107 % of control | dose: 100.0 mg/kg/injection, schedule: Q01DX009 (ip), vehicle: Klucel (hydroxypropylcellulose) (HPC) 112 % of control | dose: 100.0 mg/kg/injection, schedule: Q04DX003 (ip), vehicle: Klucel (hydroxypropylcellulose) (HPC) 105 % of control | [2] 104 % of control | dose: 200.0 mg/kg/injection, schedule: Q01DX009 (ip), vehicle: Klucel (hydroxypropylcellulose) (HPC) 122 % of control | dose: 200.0 mg/kg/injection, schedule: Q04DX003 (ip), vehicle: Klucel (hydroxypropylcellulose) (HPC) 107 % of control | [3] 107 % of control | dose: 400.0 mg/kg/injection, schedule: Q04DX003 (ip), vehicle: Klucel (hydroxypropylcellulose) (HPC) 108 % of control

O=C(Cl)C12CCC(CC1)C1CCC2CC1
inactive: dose: 100.0 mg/kg/injection, schedule: Q04DX003 (ip), vehicle: saline 86 % of control | [10] 92 % of control | dose: 400.0 mg/kg/injection, schedule: Q04DX003 (ip), vehicle: saline 97 % of control

COc1ccc(C(=O)N/N=C/c2cccc(OC)c2OC)cc1
inactive: dose: 45.0 mg/kg/injection, schedule: Q01DX009 (ip), vehicle: saline 98 % of control | dose: 65.0 mg/kg/injection, schedule: Q01DX009 (ip), vehicle: saline 98 % of control | dose: 85.0 mg/kg/injection, schedule: Q04DX003 (ip), vehicle: saline 93 % of control | dose: 100.0 mg/kg/injection, schedule: Q01DX009 (ip), vehicle: saline 102 % of control | dose: 100.0 mg/kg/injection, schedule: Q04DX002 (ip), vehicle: Klucel (hydroxypropylcellulose) (HPC) 104 % of control and 105 % of control | dose: 130.0 mg/kg/injection, schedule: Q04DX003 (ip), vehicle: saline 93 % of control | [11] 95 % of control | dose: 175.0 mg/kg/injection, schedule: Q01DX001 (ip), vehicle: saline 104 % of control | dose: 175.0 mg/kg/injection, schedule: Q04DX002 (ip), vehicle: saline 91 % of control | dose: 200.0 mg/kg/injection, schedule: Q04DX002 (ip), vehicle: Klucel (hydroxypropylcellulose) (HPC) 101 % of control and 104 % of control | [10] 93 % of control | dose: 265.0 mg/kg/injection, schedule: Q01DX001 (ip), vehicle: saline 107 % of control | dose: 265.0 mg/kg/injection, schedule: Q04DX002 (ip), vehicle: saline 102 % of control | dose: 300.0 mg/kg/injection, schedule: Q04DX003 (ip), vehicle: saline 102 % of control | dose: 400.0 mg/kg/injection, schedule: Q01DX001 (ip), vehicle: saline 96 % of control | dose: 400.0 mg/kg/injection, schedule: Q04DX002 (ip), vehicle: saline 96 % of control | dose: 600.0 mg/kg/injection, schedule: Q01DX001 (ip), vehicle: saline 102 % of control | dose: 600.0 mg/kg/injection, schedule: Q04DX002 (ip), vehicle: saline 106 % of control

[N-]=[N+]=NCCC[CH2][Pb]([c]1ccccc1)([c]1ccccc1)[c]1ccccc1
inactive: dose: 50.0 mg/kg/injection, schedule: Q01DX001 (ip), vehicle: carboxymethylcellulose (CMC) 96 % of control | [7] 102 % of control | [8] 100 % of control | [9] 96 % of control

CCCCCCCCCCCC(=O)SCCSC(=O)CCCCCCCCCCC
inactive: dose: 100.0 mg/kg/injection, schedule: Q04DX002 (ip), vehicle: other 94 % of control and 104 % of control | dose: 100.0 mg/kg/injection, schedule: Q04DX003 (ip), vehicle: other 86 % of control and 89 % of control | dose: 200.0 mg/kg/injection, schedule: Q04DX002 (ip), vehicle: other 113 % of control and 90 % of control | dose: 200.0 mg/kg/injection, schedule: Q04DX003 (ip), vehicle: other 96 % of control and 89 % of control | dose: 400.0 mg/kg/injection, schedule: Q04DX002 (ip), vehicle: other 103 % of control and 109 % of control | dose: 400.0 mg/kg/injection, schedule: Q04DX003 (ip), vehicle: other 89 % of control and 92 % of control

O=C1c2ccccc2-c2cc(Br)c(NC(=O)C(F)(F)F)cc21
inactive: [4] 108 % of control | [5] 105 % of control | [6] 100 % of control

O=C1CN(CO)C(=O)CN1CO
inactive: dose: 44.0 mg/kg/injection, schedule: Q01DX009 (ip), vehicle: saline 105 % of control | dose: 66.0 mg/kg/injection, schedule: Q01DX009 (ip), vehicle: saline 99 % of control | [11] 108 % of control | dose: 200.0 mg/kg/injection, schedule: Q01DX009 (ip), vehicle: saline 105 % of control | dose: 400.0 mg/kg/injection, schedule: Q01DX009 (ip), vehicle: saline 106 % of control

Clc1nnc(Cl)c(Cl)c1Cl
inactive: dose: 0.31 mg/kg/injection, schedule: Q01DX009 (ip), vehicle: saline 101 % of control | dose: 0.5 mg/kg/injection, schedule: Q01DX Z (ip), vehicle: carboxymethylcellulose (CMC) 98 % of control | dose: 0.62 mg/kg/injection, schedule: Q01DX009 (ip), vehicle: saline 98 % of control | dose: 0.62 mg/kg/injection, schedule: Q04DX003 (ip), vehicle: acetone 96 % of control | dose: 0.75 mg/kg/injection, schedule: Q01DX009 (ip), vehicle: saline 104 % of control | dose: 1.0 mg/kg/injection, schedule: Q01DX Z (ip), vehicle: carboxymethylcellulose (CMC) 96 % of control | dose: 1.25 mg/kg/injection, schedule: Q01DX009 (ip), vehicle: saline 96 % of control | dose: 1.25 mg/kg/injection, schedule: Q04DX003 (ip), vehicle: acetone 89 % of control | dose: 1.5 mg/kg/injection, schedule: Q01DX009 (ip), vehicle: saline 97 % of control | dose: 1.8 mg/kg/injection, schedule: Q01DX009 (ip), vehicle: saline with Tween-80 102 % of control | dose: 2.0 mg/kg/injection, schedule: Q01DX Z (ip), vehicle: carboxymethylcellulose (CMC) 93 % of control | dose: 2.5 mg/kg/injection, schedule: Q01DX001 (ip), vehicle: saline 97 % of control | dose: 2.8 mg/kg/injection, schedule: Q01DX009 (ip), vehicle: saline with Tween-80 108 % of control | dose: 3.0 mg/kg/injection, schedule: Q01DX009 (ip), vehicle: saline 97 % of control | dose: 4.0 mg/kg/injection, schedule: Q01DX015 (ip), vehicle: carboxymethylcellulose (CMC) 96 % of control | dose: 4.0 mg/kg/injection, schedule: Q01DX Z (ip), vehicle: carboxymethylcellulose (CMC) 93 % of control | dose: 4.2 mg/kg/injection, schedule: Q01DX009 (ip), vehicle: saline with Tween-80 94 % of control | dose: 8.0 mg/kg/injection, schedule: Q01DX015 (ip), vehicle: carboxymethylcellulose (CMC) 93 % of control
